“Also recorded” adds a separate entry of the source. Residues, ends and D or L forms follow the SMILES beside them. *: point of attachment. Cbz = O=C(OCc1ccccc1)*; CH2F = FC*
How the values were obtained:
commissural neurons = test: dorsal spinal cord (commissural explant) survival assay; type: cell-based, rat; conditions: for commissural axon degeneration: 48 hours, hDR6-ECD-Fc at 30 μg/ml and 10 μg/ml
Method: To examine functional roles of DR6 in axonal degeneration and programmed cell death of commissural neurons, an RNAi-based dorsal spinal cord survival assay (Kennedy et al., Cell, 78:425-435 (1994); Wang et al., supra, 1999) was conducted (see FIG. 3). E13 rat or E11.5 mouse embryos were placed in L15 medium (Gibco) and siRNAs (IDT) together with green fluorescent protein (“GFP”)-encoding plasmids were injected into the neural tubes. The siRNAs and plasmids were then delivered to dorsal progenitor cells by electroporation. Dorsal spinal cord explants were dissected out, embedded into a 3D-collagen gel matrix, and cultured in Opti-MEM/F12 medium (Invitrogen) with recombinant netrin-1 ([…]) and 5% horse serum (Sigma) at 37° C. in a 5% CO2 environment. Within 16 hours in response to chemo-attractant netrin-1, commissural axons grow out of the explant into the collagen matrix gel (Kennedy et al., supra, 1994). Commissural axons are visualized by GFP fluorescence by observation using an inverted microscope.
Materials and methods used to generate the data shown in this figure are as follows. To investigate physiological roles of DR6 receptor in axonal degeneration and programmed cell death of commissural neurons, a dorsal spinal cord survival assay according to protocols known in the art (Kennedy et al., Cell, 78:425-435 (1994); Wang et al., Nature, 401:765-769 (1999)) was performed (with data shown in FIG. 4B). E13 rat embryos were placed in L15 medium (Gibco) and injected into their neural tubes with the following siRNA constructs (FIG. 4B): […]
A dorsal spinal cord survival assay (as described in Example 2 above) was conducted using anti-DR6 antibodies. Microscopic observation (using green fluorescence channel for GFP) was employed to visualize commissural axons. […] To visualize GFP-expressing commissural axons, pictures were taken on the Axiovert 200 Zeiss inverted microscope (in green fluorescence channel for GFP) using AxioVision40 Release 4.5.0.0 SP1 (March 2006) computer software from Carl Zeiss Imaging Solutions. […]

sensory neurons = test: NGF deprivation assay in Campenot Chambers, local sensory axonal degeneration; type: cell-based, mouse; conditions: for sensory axonal degeneration induced by NGF withdrawal: 30 μg/ml in axonal compartments with anti-NGF, 0, 6 and 24 hours
Method: Materials and methods used to generate the data shown in this figure are as follows. To examine whether ligand is required for DR6 function in sensory axonal degeneration, a compartmented culture analysis of sensory axon growth and degeneration was carried out as follows. A Campenot nerve cell chamber system was used to isolate neuronal processes (axons) from the cell bodies in different compartments (separate fluid environments), analogous to neuronal cell bodies in one location of the nervous system projecting their axons to a distal target in another location. The assay was carried out as originally described by Campenot (Campenot et al., J. Neurosci. 11(4): 1126-39 (1991)) with the following modifications. Briefly, 35-mm tissue culture dishes were coated with PDL/Laminin and scratched with a pin rake (Tyler Research) to generate tracks, as illustrated for example in FIGS. 1 and 4 of Campenot et al., supra.
A drop of culture medium (Neurobasal medium with B27 supplement, 25 ng/ml of NGF, and 4 g/L of methylcellulose) was placed on the scratched substratum. A Teflon divider (Tyler Research) was seated on silicone grease and a dab of silicone grease was placed at the mouth of the center slot. Dissociated sensory neurons derived from E12.5 mouse DRGs were suspended in methylcellulose-thickened medium and loaded into a disposable sterile syringe fitted with a 22-gauge needle. This cell suspension was injected into the center slots of each compartmented dish under the dissecting microscope. The neurons were allowed to settle overnight. […]
To trigger local axonal degeneration, NGF-containing medium from axonal compartments was substituted with neurobasal medium with an NGF blocking antibody (anti-NGF, Genentech, Inc., 20 ug/ml). Zero hours, 6 hours, or 24 to 48 hours following NGF deprivation, sensory neurons were fixed in 4% PFA for 30 minutes at room temperature and processed for immunofluorescence staining with axonal marker TUJ-1 (Covance, 1:500 dilution) to visualize degenerating axons by fluorescence microscopy (FIG. 11B) (as above described in Example 7). […]
To examine whether ligand is required for DR6 function in axonal degeneration program triggered by NGF withdrawal, 30 μg/ml of hDR6-ECD-Fc immunoadhesin protein (described in EXAMPLE 3 above) or 30 μg/ml of a control Fc (Genentech, Inc.) was included together with anti-NGF treatment in axonal compartments of Campenot Chambers. Zero to 24 hours after NGF deprivation, axons in Campenot Chambers were fixed with 4% PFA/PBS and visualized by immuno-fluorescence staining with TUJ-1 (1:500, Covance)/secondary antibody conjugated to a fluorescence group Alexa 488 (Molecular Probes, BD) (FIG. 11B). […]

[1] = cited from earlier work
[2] = system: DR6-AP binding sites on BAX null sensory axons; test: in situ DR6-AP sensory axon binding assay after NGF deprivation; type: cell-based, mouse; conditions: BAX null sensory axons E12.5; BACE inhibitor at 1 uM
Method: For the in situ DR6-AP sensory axon binding assay, either wild-type or Bax null sensory explants were cultured in Neurobasal medium/B27 (Invitrogen) as outlined in the Examples 7-8 above, with 50 ng/ml NGF (Roche). Two days post-plating, DRG explants were either left untreated or deprived from NGF as described above in Examples 7-8. Bax inhibitory peptide was added where indicated on FIG. 12B (10 uM, Bax-V5, Tocris). Twelve hours post-NGF deprivation, DRG explants were washed twice with the binding buffer (HBSS, Gibco Cat. No. 14175-095, with 0.2% BSA, 0.1% NaN3, 5 mM CaCl2, 1 mM MgCl2, 20 mM HEPES, pH=7.0). AP binding assay was then carried out by making a 1:1 mixture of DR6-AP conditioned medium and the binding buffer (or control AP conditioned medium and the binding buffer), which was applied directly to DRG explants in 8-well culture slides (Becton, Dickinson and Company) and incubated for 90 minutes at room temperature.
Following the incubation, unbound DR6-AP proteins were washed away by rinsing DRG explants five times with the binding buffer. DRG explants were then fixed with 3.7% formaldehyde diluted in PBS, for 12 minutes at room temperature. The remaining formaldehyde was removed by rinsing DRG explants 3 times with HBS buffer (20 mM HEPES pH=7.0, 150 mM NaCl). Endogenous AP activity was blocked by heat inactivation at 65° C. in HBS buffer for 30 minutes. […]

Question: With “hDR6-ECD-Fc: human DR6 extracellular domain sequence fused with Fc, SEQ ID NO: 4” as the compound, how does the commissural axon degeneration (commissural neurons) read?
Answer: Its commissural axon degeneration is “delayed”.

Question: And the commissural axon degeneration (commissural neurons; listed as DR6-Fc)?
Answer: The commissural axon degeneration was “can be delayed”.

Question: What about the “sensory axonal degeneration induced by NGF withdrawal” value (sensory neurons) of the same compound?
Answer: Its value is “delayed sensory axonal degeneration; also recorded: delayed the onset of axonal degeneration”.

Question: What about the “sensory axonal degeneration induced by NGF withdrawal” value (sensory neurons; listed as DR6-Fc) of the same compound?
Answer: The value was “can be delayed”.

Question: For “(L)-HIV-TAT48-57-PP-JBD20 [L-JNK-I, reference compound]”, which “axonal degeneration of commissural neurons” value (commissural neurons; JNK signaling blocked by peptide inhibitor at 1 μM) is on record?
Answer: The value was “partially blocked axonal degeneration”.

Question: With CC12CC3CC(C)(C1)CC(N)(C3)C2 [Memantine] as the compound, how does the “symptoms across SIB, ADCS-ADL19, CIBIC-Plus and NPI outcome measures” value ([1]; human, in vivo) read?
Answer: The value was “improvement and stabilization of symptoms”.

Question: And the “outcome measures SIB, ADCS-ADL19, CIBIC-Plus, NPI, BGP versus placebo” value ([1]; patients taking stable doses of Donepezil)?
Answer: The value was “benefit over placebo”.

Question: What does the source list for OM99-2 [reference compound]?
Answer: disappearance of DR6-AP binding sites from sensory axons following NGF withdrawal [2]: can block the disappearance of DR6-AP binding sites; sensory axonal degeneration in the absence of NGF (sensory neurons; BACE inhibitor at 1 uM): blocked

Question: For CC[C@H](C)[C@H](NC(=O)OCc1ccccc1)C(=O)N[C@@H](CCC(=O)OC)C(=O)N[C@H](C(=O)N[C@@H](CC(=O)OC)C(=O)CF)[C@@H](C)O [caspase-8 inhibitor, Z-IETD-FMK, reference compound] (Cbz-IE(OMe)TD(OMe)-CH2F), which “sensory axonal degeneration after NGF deprivation” value (sensory neurons; neurons cultured 5 days, then 24 hours, SP 600125 1 uM, Z-IETD-FMK 10 uM, Z-DEVD-FMK 10 uM) is on record?
Answer: Its value is “delayed”.
